The text below walks through data of US20230257372A1 (CHONG KUN DANG PHARMACEUTICAL CORP., priority 2020, published 2023).

Each structure is given as a SMILES string. Where two headings read alike, the source gives them in different places. Some results are limits rather than exact numbers.

For test [1], the target named is T1, human recombinant HDAC6 (Homo sapiens, UniProt Q9UBN7).
T1 construct: purchased Calbiochem Inc. 382180
T1 sequence (Q9UBN7 1-1215): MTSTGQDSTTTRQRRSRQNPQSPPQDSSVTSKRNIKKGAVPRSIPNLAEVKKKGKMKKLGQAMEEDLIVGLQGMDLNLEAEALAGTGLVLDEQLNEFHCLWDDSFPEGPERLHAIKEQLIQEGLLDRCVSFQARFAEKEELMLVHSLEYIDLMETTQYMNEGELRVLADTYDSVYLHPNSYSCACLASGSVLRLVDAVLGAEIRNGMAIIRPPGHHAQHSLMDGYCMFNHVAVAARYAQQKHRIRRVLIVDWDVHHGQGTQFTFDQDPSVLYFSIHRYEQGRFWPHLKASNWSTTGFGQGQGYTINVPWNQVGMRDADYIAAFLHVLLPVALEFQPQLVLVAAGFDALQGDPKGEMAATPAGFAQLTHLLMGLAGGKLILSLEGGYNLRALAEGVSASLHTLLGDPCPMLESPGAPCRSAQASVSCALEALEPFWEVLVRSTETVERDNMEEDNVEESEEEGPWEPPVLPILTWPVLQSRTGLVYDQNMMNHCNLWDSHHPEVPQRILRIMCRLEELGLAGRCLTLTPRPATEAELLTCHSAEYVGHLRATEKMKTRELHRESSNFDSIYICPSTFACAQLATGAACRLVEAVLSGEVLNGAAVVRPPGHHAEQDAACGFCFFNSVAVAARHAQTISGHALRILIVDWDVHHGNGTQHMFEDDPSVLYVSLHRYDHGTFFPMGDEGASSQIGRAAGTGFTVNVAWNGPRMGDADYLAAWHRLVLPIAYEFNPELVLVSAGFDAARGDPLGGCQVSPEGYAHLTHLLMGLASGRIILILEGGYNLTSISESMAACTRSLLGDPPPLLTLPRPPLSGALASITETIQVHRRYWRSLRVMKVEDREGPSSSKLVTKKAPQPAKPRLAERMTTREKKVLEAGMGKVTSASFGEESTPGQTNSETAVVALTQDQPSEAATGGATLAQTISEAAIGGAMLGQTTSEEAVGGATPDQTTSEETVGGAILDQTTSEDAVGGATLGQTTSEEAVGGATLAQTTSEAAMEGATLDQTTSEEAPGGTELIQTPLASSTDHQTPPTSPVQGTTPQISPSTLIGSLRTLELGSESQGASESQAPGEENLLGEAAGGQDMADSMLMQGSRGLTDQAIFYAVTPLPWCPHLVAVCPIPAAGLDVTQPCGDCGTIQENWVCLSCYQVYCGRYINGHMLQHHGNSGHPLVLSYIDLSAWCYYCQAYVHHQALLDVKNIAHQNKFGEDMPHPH
The experiment in a line: HDAC6 enzyme activity inhibition (HDAC Fluorimetric Drug Discovery Kit). It counts as biochemical. In short, it runs like this:
(§1)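 Each isoform is run in the same format: compound dilutions (5-fold steps), 10 μM substrate, […] enzyme, one hour at 30° C, then 30 minutes with developer before fluorescence readout.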

Test [2] deals with T2, human recombinant HDAC1 (Homo sapiens, UniProt Q13547).
T2 construct: purchased Enzo Life Science, Inc. BML-SE456
T2 sequence (Q13547 whole entry): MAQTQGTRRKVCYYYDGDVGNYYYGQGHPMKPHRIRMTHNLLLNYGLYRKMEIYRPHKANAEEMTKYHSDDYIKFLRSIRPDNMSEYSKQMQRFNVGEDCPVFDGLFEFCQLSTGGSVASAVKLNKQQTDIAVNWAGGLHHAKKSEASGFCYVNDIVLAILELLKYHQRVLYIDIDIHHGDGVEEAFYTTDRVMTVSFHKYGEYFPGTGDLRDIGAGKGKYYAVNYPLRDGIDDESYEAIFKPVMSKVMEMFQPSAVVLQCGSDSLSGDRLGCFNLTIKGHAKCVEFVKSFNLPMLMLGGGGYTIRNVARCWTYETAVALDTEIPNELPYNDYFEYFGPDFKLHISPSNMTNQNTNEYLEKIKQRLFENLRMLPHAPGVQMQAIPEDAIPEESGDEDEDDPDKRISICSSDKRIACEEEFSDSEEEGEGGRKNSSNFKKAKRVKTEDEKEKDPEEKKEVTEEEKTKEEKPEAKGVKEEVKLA
Description: HDAC1 enzyme activity inhibition (HDAC Fluorimetric Drug Discovery Kit). The class given is biochemical. The conditions noted are these: read-out: HDAC1. In short, it runs like this:
as §1

Setting [3] is: human recombinant HDAC6, IC50 calculated with GraphPad Prism.
Where [4] appears, read: human recombinant HDAC1, IC50 calculated with GraphPad Prism.
The mark [5] stands for this setting: human recombinant HDAC6, same protocol as HDAC1.
Setting [6] is: human recombinant HDAC1, Fluor de Lys substrate, 30° C. 60 minutes.

On to `CC(C)(C)OC(=O)N1CCC(c2cn(Cc3ccc(-c4nnc(C(F)F)o4)cn3)nn2)C1` (stereo not drawn) [Compound 3820, Tert-butyl 3-(1-((5-(5-(difluoromethyl)-1,3,4-oxadiazol-2-yl)pyridin-2-yl)methyl)-1H-1,2,3-triazol-4-yl)pyrrolidin-1-carboxylate], for which the “HDAC6 selectivity (fold)” value in test [1] (HDAC1 IC50 / HDAC6 IC50) came to 294 fold. For the same compound, the values for the IC50 in test [1] (setting [3]) and in test [2] (setting [4]) were 170 nM and more than 50000 nM, respectively.
Consider `CN1CC(NCc2ccc(-c3cn(Cc4ccc(-c5nnc(C(F)F)o5)cc4F)nn3)cc2)C1` [Compound 4470, N-(4-(1-(4-(5-(difluoromethyl)-1,3,4-oxadiazol-2-yl)-2-fluorobenzyl)-1H-1,2,3-triazol-4-yl)benzyl)-1-methylazetidin-3-amine], for which the “HDAC6 selectivity (fold)” value in test [1] (HDAC1 IC50 / HDAC6 IC50) worked out at 915 fold. Further, the results for the IC50 in test [1] (setting [3]) and in test [2] (setting [4]) were 54.6 nM and more than 50000 nM, respectively.
For `CCC(F)(CC)CN1CCC(c2cccc(-c3cn(Cc4ccc(-c5nnc(C(F)F)o5)cc4F)nn3)c2)CC1` [Compound 4350, 2-(difluoromethyl)-5-(4-((4-(3-(1-(2-ethyl-2-fluorobutyl)piperidin-4-yl)phenyl)-1H-1,2,3-triazol-1-yl)methyl)-3-fluorophenyl)-1,3,4-oxadiazole], the “HDAC6 selectivity (fold)” value in test [1] (HDAC1 IC50 / HDAC6 IC50) is listed as 82 fold. The IC50 in test [1] (setting [3]) is 605 nM; in test [2] (setting [4]), more than 50000 nM.
The corresponding values for `CC(C)(C)OC(=O)N1CCC(c2cn(Cc3ccc(-c4nnc(C(F)F)o4)cc3F)nn2)CC1` [Compound 3735, Tert-butyl 4-(1-(4-(5-(difluoromethyl)-1,3,4-oxadiazol-2-yl)-2-fluorobenzyl)-1H-1,2,3-triazol-4-yl)piperidin-1-carboxylate] are 320 fold, 156 nM and more than 50000 nM.
As for `Fc1cc(-c2nnc(C(F)F)o2)ccc1Cn1cc(-c2cccc(N3CCN(C4CCC4)CC3)c2F)nn1` [Compound 4579, 2-(4-((4-(3-(4-cyclobutylpiperazin-1-yl)-2-fluorophenyl)-1H-1,2,3-triazol-1-yl)methyl)-3-fluorophenyl)-5-(difluoromethyl)-1,3,4-oxadiazole], the “HDAC6 selectivity (fold)” value in test [1] (HDAC6 over HDAC1) came out at 1256 fold. Also, the IC50 in test [1] (setting [5]) is 39.8 nM; in test [2] (setting [6]), more than 50000 nM.
On to `Fc1cc(-c2nnc(C(F)F)o2)ccc1Cn1cc(-c2cccc(N3CCOCC3)c2)nn1` [Compound 4339, 4-(3-(1-(4-(5-(difluoromethyl)-1,3,4-oxadiazol-2-yl)-2-fluorobenzyl)-1H-1,2,3-triazol-4-yl)phenyl)morpholine], for which, in test [1] (HDAC1 IC50 / HDAC6 IC50), the “HDAC6 selectivity (fold)” value is 1623 fold. Further, the IC50 in test [1] (setting [3]) was 30.8 nM; in test [2] (setting [4]) it was more than 50000 nM.
Regarding `CN(C)Cc1ccc(-c2cn(Cc3ccc(-c4nnc(C(F)F)o4)cc3F)nn2)cc1Cl` [Compound 18711, 1-(2-chloro-4-(1-(4-(5-(difluoromethyl)-1,3,4-oxadiazol-2-yl)-2-fluorobenzyl)-1H-1,2,3-triazol-4-yl)phenyl)-N,N-dimethylmethanamine], the “HDAC6 selectivity (fold)” value in test [1] (HDAC6 over HDAC1) was determined as 524 fold. Moreover, the IC50 in test [1] (setting [5]) was 95.4 nM; in test [2] (setting [6]), more than 50000 nM.
The corresponding values for `Fc1cc(-c2nnc(C(F)F)o2)ccc1Cn1cc(-c2ccc3c(c2)CN(C2CCC2)C3)nn1` [Compound 4518, 2-(4-((4-(2-cyclobutylisoindolin-5-yl)-1H-1,2,3-triazol-1-yl)methyl)-3-fluorophenyl)-5-(difluoromethyl)-1,3,4-oxadiazole] are 986 fold, 50.7 nM and more than 50000 nM.
Turning to `FC(F)c1nnc(-c2ccc(Cn3cc(-c4cccc5cc[nH]c45)nn3)nc2)o1` [Compound 4071, 2-(6-((4-(1H-indol-7-yl)-1H-1,2,3-triazol-1-yl)methyl)pyridin-3-yl)-5-(difluoromethyl)-1,3,4-oxadiazole], the “HDAC6 selectivity (fold)” value in test [1] (HDAC1 IC50 / HDAC6 IC50) was determined as 347 fold. Moreover, the IC50 in test [1] (setting [3]) is 144 nM; in test [2] (setting [4]), more than 50000 nM.
In the case of `CC(C)N1CCC(F)(c2cn(Cc3ccc(-c4nnc(C(F)F)o4)cn3)nn2)CC1` [Compound 4007, 2-(difluoromethyl)-5-(6-((4-(4-fluoro-1-isopropylpiperidin-4-yl)-1H-1,2,3-triazol-1-yl)methyl)pyridin-3-yl)-1,3,4-oxadiazole], the “HDAC6 selectivity (fold)” value in test [1] (HDAC1 IC50 / HDAC6 IC50) is 2873 fold. The IC50 in test [1] (setting [3]) is 17.4 nM; in test [2] (setting [4]), more than 50000 nM.
Take `FC(F)c1nnc(-c2ccc(Cn3cc(-c4ccccc4)cn3)nc2)o1` [Compound 4133, 2-(difluoromethyl)-5-(6-((4-phenyl-1H-pyrazol-1-yl)methyl)pyridin-3-yl)-1,3,4-oxadiazole]: the “HDAC6 selectivity (fold)” value in test [1] (HDAC1 IC50 / HDAC6 IC50) was determined as 444 fold. In addition, the IC50 in test [1] (setting [3]) was 113 nM; in test [2] (setting [4]), more than 50000 nM.
In the case of `CN1CCC(Nc2ccc(F)c(-c3cn(Cc4ccc(-c5nnc(C(F)F)o5)cc4F)nn3)c2)CC1` [Compound 4435, N-(3-(1-(4-(5-(difluoromethyl)-1,3,4-oxadiazol-2-yl)-2-fluorobenzyl)-1H-1,2,3-triazol-4-yl)-4-fluorophenyl)-1-methylpiperidin-4-amine], the “HDAC6 selectivity (fold)” value in test [1] (HDAC1 IC50 / HDAC6 IC50) is on record as 1677 fold. Besides, the values for the IC50 in test [1] (setting [3]) and in test [2] (setting [4]) were 29.8 nM and more than 50000 nM, respectively.
The like results for `Fc1cc(-c2nnc(C(F)F)o2)ccc1Cn1cc(-c2ccc3c(c2)CCN(C2CN(C4CCC4)C2)C3)nn1` [Compound 4394, 2-(4-((4-(2-(1-cyclobutylazetidin-3-yl)-1,2,3,4-tetrahydroisoquinolin-6-yl)-1H-1,2,3-triazol-1-yl)methyl)-3-fluorophenyl)-5-(difluoromethyl)-1,3,4-oxadiazole] were, in that order, 706 fold, 70.8 nM and more than 50000 nM.
As for `Fc1c(-c2cn(Cc3ccc(-c4nnc(C(F)F)o4)cn3)nn2)cccc1N1CCN(CC2(F)CC2)CC1` [Compound 4600, 2-(difluoromethyl)-5-(6-((4-(2-fluoro-3-(4-((1-fluorocyclopropyl)methyl)piperazin-1-yl)phenyl)-1H-1,2,3-triazol-1-yl)methyl)pyridin-3-yl)-1,3,4-oxadiazole], the “HDAC6 selectivity (fold)” value in test [1] (HDAC6 over HDAC1) is 1533 fold. The figures for the IC50 in test [1] (setting [5]) and in test [2] (setting [6]) were 32.6 nM and more than 50000 nM, respectively.
As to `CNCc1cccc(-c2cn(Cc3ccc(-c4nnc(C(F)F)o4)cn3)nn2)c1` [Compound 3919, 1-(3-(1-((5-(5-(difluoromethyl)-1,3,4-oxadiazol-2-yl)pyridin-2-yl)methyl)-1H-1,2,3-triazol-4-yl)phenyl)-N-methylmethanamine], the “HDAC6 selectivity (fold)” value in test [1] (HDAC1 IC50 / HDAC6 IC50) is listed as 1358 fold. Also, the IC50 in test [1] (setting [3]) is 36.8 nM; in test [2] (setting [4]), more than 50000 nM.
As to `CN1CCN(c2cc(-c3cn(Cc4ccc(-c5nnc(C(F)F)o5)cn4)nn3)ccn2)CC1` [Compound 4582, 2-(difluoromethyl)-5-(6-((4-(2-(4-methylpiperazin-1-yl)pyridin-4-yl)-1H-1,2,3-triazol-1-yl)methyl)pyridin-3-yl)-1,3,4-oxadiazole], the “HDAC6 selectivity (fold)” value in test [1] (HDAC6 over HDAC1) was 2283 fold. In addition, the IC50 in test [1] (setting [5]) was 21.9 nM; in test [2] (setting [6]) it was more than 50000 nM.
As to `Fc1cc(-c2nnc(C(F)F)o2)ccc1Cn1cc(-c2cccc(CN3CCC(F)(F)CC3)c2)nn1` [Compound 4405, 2-(difluoromethyl)-5-(4-((4-(3-((4,4-difluoropiperidin-1-yl)methyl)phenyl)-1H-1,2,3-triazol-1-yl)methyl)-3-fluorophenyl)-1,3,4-oxadiazole], the “HDAC6 selectivity (fold)” value in test [1] (HDAC1 IC50 / HDAC6 IC50) was found to be 794 fold. The IC50 was 62.9 nM in test [1] (setting [3]) and more than 50000 nM in test [2] (setting [4]).
In the case of `Fc1cc(-c2nnc(C(F)F)o2)cnc1Cn1cc(-c2ccc(CN3CCCC3)s2)nn1` [Compound 18059, 2-(difluoromethyl)-5-(5-fluoro-6-((4-(5-(pyrrolidin-1-ylmethyl)thiophen-2-yl)-1H-1,2,3-triazol-1-yl)methyl)pyridin-3-yl)-1,3,4-oxadiazole], the “HDAC6 selectivity (fold)” value in test [1] (HDAC6 over HDAC1) amounted to 1295 fold. Besides, the figures for the IC50 in test [1] (setting [5]) and in test [2] (setting [6]) were 38.6 nM and more than 50000 nM, respectively.
